This assay addresses Human CARM1 (PRMT4) (Homo sapiens (Human), UniProt Q86X55). The assay is described as follows: CARM1 enzyme assay on peptide substrate (3H-SAM Flashplate). To be noted: Biochemical potencies, classification codes; read-out: Biochem IC50.
Human CARM1 (PRMT4), sequence (Q86X55 other isoform, or with tags, fused parts or gaps isoform Q86X55-1): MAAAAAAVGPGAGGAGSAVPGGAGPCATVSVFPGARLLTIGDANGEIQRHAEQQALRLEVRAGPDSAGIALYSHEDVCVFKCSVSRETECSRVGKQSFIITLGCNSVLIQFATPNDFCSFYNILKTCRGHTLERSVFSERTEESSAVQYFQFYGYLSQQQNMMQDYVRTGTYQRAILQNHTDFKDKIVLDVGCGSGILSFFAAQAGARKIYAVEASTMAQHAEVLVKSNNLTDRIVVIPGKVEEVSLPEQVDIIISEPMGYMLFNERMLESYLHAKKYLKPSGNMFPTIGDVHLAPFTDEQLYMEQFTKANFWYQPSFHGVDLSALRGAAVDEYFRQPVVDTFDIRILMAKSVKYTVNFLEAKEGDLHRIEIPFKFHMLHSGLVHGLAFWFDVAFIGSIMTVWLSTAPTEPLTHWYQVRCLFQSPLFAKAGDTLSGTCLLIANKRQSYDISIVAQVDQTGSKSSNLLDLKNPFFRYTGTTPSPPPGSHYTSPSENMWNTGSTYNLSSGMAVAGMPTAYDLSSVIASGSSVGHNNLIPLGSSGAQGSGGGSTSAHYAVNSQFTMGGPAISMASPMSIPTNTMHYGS
For the compound `CNCC(O)COc1ccc(Cl)c(-c2nc(NCC3COCCO3)c(C)c(-c3c(C)noc3C)n2)c1` (stereo not shown) [Example 41-3], the IC50 (in general, the concentration needed to halve the response being measured) is below 100 nM.
Then `CNCC(O)COc1cccc(-c2nc(NCCCN3CCCC3=O)cc(C3=CCCC3)n2)c1` (stereo not shown) [Example 42-1], with below 100 nM.
The result for `CNCC(O)COc1cccc(-c2nc(-c3c(C)noc3C)cc(N3CCC4(CC3)NC(=O)NC4=O)n2)c1` (stereo not shown) [Example 42-1a] reads below 100 nM.
The result for `CCOC(=O)N1CCOC[C@@H]1CNc1nc(-c2cc(OC[C@@H](O)CNC)ccc2Cl)nc(-c2c(C)noc2C)c1C` [Example 42-3] reads below 100 nM; that for `CNCC(O)COc1cccc(-c2nc(N[C@H]3C[C@H](O)C3)cc(-c3c(C)noc3C)n2)c1` (stereo partly shown) [Example 43-1a], below 100 nM.
For `CNC[C@H](O)COc1ccc(Cl)c(-c2nc(N[C@H]3CCN(C4CC4)C[C@H]3F)c(C)c(-c3c(C)noc3C)n2)c1` [Example 43-3], the IC50 is below 100 nM.
The result for `CNCC(O)COc1cccc(-c2nc(N[C@@H]3CC[C@@H](O)C3)cc(-c3c(C)noc3C)n2)c1` (stereo partly shown) [Example 44-1a] reads below 100 nM; that for `CNC[C@@H](O)COc1ccc(Cl)c(-c2nc(N[C@H]3CCN(C4CC4)C[C@H]3F)c(C)c(-c3c(C)noc3C)n2)c1` [Example 44-3], below 100 nM.
For the compound `CNCC(O)COc1cc(Cl)cc(-c2nc(N[C@H]3CCOC3)c(C)c(-c3ccncc3)n2)c1` (stereo partly shown) [Example 45-1], the IC50 was below 100 nM.
As for `CNCC(O)COc1cccc(-c2nc(NC3CC(C(=O)OC)C3)cc(-c3c(C)noc3C)n2)c1` (stereo not shown) [Example 45-1a], the IC50 is below 100 nM.
The result for `CNCC(O)COc1ccc(Cl)c(-c2nc(NC3CC4(C3)CN(C(=O)OC)C4)c(C)c(-c3c(C)noc3C)n2)c1` (stereo not shown) [Example 45-3] reads below 100 nM.
As for `CNCC(O)COc1cccc(-c2nc(NC3CCOCC3)cc(-c3cc4ccccc4o3)n2)c1` (stereo not shown) [Example 46-1], the IC50 was below 100 nM.
The result for `CNCC(O)COc1ccc(Cl)c(-c2nc(NC3CC(C)N(C(=O)OC)C(C)C3)c(C)c(-c3c(C)noc3C)n2)c1` (stereo not shown) [Example 46-3] reads below 100 nM; that for `CNCC(O)COc1cc(Cl)cc(-c2nc(NC3CCOCC3)c(C)c(-c3c(C)noc3C)n2)c1` (stereo not shown) [Example 47-1a], below 100 nM; that for `CNCC(O)COc1cccc(-c2nc(-c3c(C)noc3C)c(C)c(N3CCNC(C(F)F)C3)n2)c1` (stereo not shown) [Example 47-3], below 100 nM.
The result for `CNCC(O)COc1cccc(-c2nc(-c3ccc4c(c3)OCCO4)cc(N(C)CCC#N)n2)c1` (stereo not shown) [Example 48-1] reads below 100 nM; that for `CCN1CCC[C@H]1CNc1nc(-c2cc(OC[C@@H](O)CNC)ccc2Cl)nc(-c2c(C)noc2C)c1C` [Example 48-3], below 100 nM; that for `CNCC(O)COc1cccc(-c2nc(-c3ccc(OC)c(OC)c3)cc(N(C)CCC#N)n2)c1` (stereo not shown) [Example 49-1], below 100 nM.
Then `CNCC(O)COc1cccc(-c2nc(Nc3cnc(C)nc3)cc(-c3c(C)noc3C)n2)c1` (stereo not shown) [Example 49-1a], with below 100 nM; and `CCOC(=O)N1CCC[C@@H]1CNc1nc(-c2cc(OC[C@@H](O)CNC)ccc2Cl)nc(-c2c(C)noc2C)c1C` [Example 49-3], with below 100 nM; and `CNCC(O)COc1cccc(-c2nc(NCCCN3CCCC3=O)cc(-c3cncnc3)n2)c1` (stereo not shown) [Example 50-1], with below 100 nM.
Consider `CNCC(O)COc1cccc(-c2nc(-c3c(C)noc3C)cc(N(C)c3cncnc3)n2)c1` (stereo not shown) [Example 50-1a], for which the IC50 was below 100 nM.
Then `CNCC(O)COc1cccc(-c2nc(-c3c(C)noc3C)cc(N(C)c3cnc(OC)nc3)n2)c1` (stereo not shown) [Example 51-1a], with below 100 nM; and `CNCC(O)COc1cccc(-c2nc(NC3CCOCC3)cc(-c3cccc4ncccc34)n2)c1` (stereo not shown) [Example 53-1], with below 100 nM; and `CNCC(O)COc1cccc(-c2nc(SC)c(C)c(-c3c(C)noc3C)n2)c1` (stereo not shown) [Example 53-1a], with below 100 nM.
Consider `CNC[C@H](O)COc1ccc(Cl)c(-c2nc(N[C@H]3C[C@H](OC)C3)c(C)c(-c3c(C)noc3C)n2)c1` [Example 53-3], for which the IC50 was below 100 nM.
Then `Cc1noc(C)c1-c1nc(-c2cccc(OCC(O)CN)c2)nc(NC2CCOCC2)c1C` (stereo not shown) [Example 54-1a], with below 100 nM.
The result for `CNC[C@H](O)COc1ccc(Cl)c(-c2nc(N[C@H]3C[C@@H](OC)C3)c(C)c(-c3c(C)noc3C)n2)c1` [Example 54-3] reads below 100 nM.
Turning to `CNCC(O)COc1cccc(-c2nc(-c3cnc4[nH]ccc4c3)cc(N(C)C3CCOCC3)n2)c1` (stereo not shown) [Example 55-1], the IC50 was below 100 nM.
Then `CNC[C@H](O)COc1cccc(-c2nc(NC3CCOCC3)c(C)c(-c3c(C)noc3C)n2)c1` [Example 55-1a], with below 100 nM; and `CNC[C@H](O)COc1ccc(Cl)c(-c2nc(-c3c(C)noc3C)c(C)c(N3CC4(CCN(C5CC5)CC4)C3)n2)c1` [Example 55-3], with below 100 nM; and `CNCC(O)COc1cccc(-c2nc(-c3ccc(S(C)(=O)=O)cc3)cc(N(C)CCC#N)n2)c1` (stereo not shown) [Example 56-1], with below 100 nM.
The result for `CNC[C@@H](O)COc1cccc(-c2nc(NC3CCOCC3)c(C)c(-c3c(C)noc3C)n2)c1` [Example 56-1a] reads below 100 nM.
As for `CCOC(=O)N1CCOC[C@@H]1CNc1nc(-c2cc(OC[C@H](O)CNC)ccc2Cl)nc(-c2c(C)noc2C)c1Cl` [Example 56-3], the 50% inhibitory concentration (IC50) was below 100 nM.
Then `CNCC(O)COc1cccc(-c2nc(-c3ccnc(OC)c3)cc(N(CCOC)CCOC)n2)c1` (stereo not shown) [Example 57-1], with below 100 nM.
Then `CNCC(O)COc1cccc(-c2nc(-c3c(C)noc3C)c(C)c(N3CCS(=O)(=O)CC3)n2)c1` (stereo not shown) [Example 57-1a], with below 100 nM; and `CNCC(O)COc1ccc(Cl)c(-c2nc(N[C@H]3CCC[C@@H](OC)C3)c(C)c(-c3c(C)noc3C)n2)c1` (stereo partly shown) [Example 57-3], with below 100 nM; and `CNC[C@H](O)COc1ccc(Cl)c(-c2nc(NC[C@H]3COCCN3C(=O)OC)c(C)c(-c3c(C)noc3C)n2)c1` [Example 58-3], with below 100 nM.
The result for `CNCC(O)COc1cccc(-c2nc(-c3ccc4c(c3)OCCO4)cc(N(C)C3CCOCC3)n2)c1` (stereo not shown) [Example 59-1] reads below 100 nM; that for `CNCC(O)COc1cccc(-c2nc(NC3CCS(=O)(=O)CC3)c(C)c(-c3c(C)noc3C)n2)c1` (stereo not shown) [Example 59-1a], below 100 nM.
Regarding `CCOC(=O)N1CCOC[C@H]1CNc1nc(-c2cc(OC[C@@H](O)CNC)ccc2F)nc(-c2c(C)noc2C)c1C` [Example 59-3], the IC50 is below 100 nM.
Then `CNCC(O)COc1cccc(-c2nc(NCCCN3CCCC3=O)cc(-c3ccnc(OC)c3)n2)c1` (stereo not shown) [Example 60-1], with below 100 nM.
Then `CNCC(O)COc1cccc(-c2nc(NC3CCS(=O)(=O)CC3)cc(-c3c(C)noc3C)n2)c1` (stereo not shown) [Example 60-1a], with below 100 nM.
The result for `CCOC(=O)N1CCOC[C@H]1CNc1nc(-c2cc(OC[C@H](O)CNC)ccc2F)nc(-c2c(C)noc2C)c1C` [Example 60-3] reads below 100 nM; that for `CNCC(O)COc1cccc(-c2nc(-c3c(C)noc3C)cc(N(C)c3cnc(C)nc3)n2)c1` (stereo not shown) [Example 61-1a], below 100 nM; that for `CCOC(=O)N1CCOC[C@@H]1CNc1nc(-c2cc(OC[C@@H](O)CNC)ccc2F)nc(-c2c(C)noc2C)c1C` [Example 61-3], below 100 nM.
Take `CNCC(O)COc1cccc(-c2nc(-c3ccc4c(c3)OCCO4)cc(N(CCOC)CCOC)n2)c1` (stereo not shown) [Example 62-1]: the IC50 was below 100 nM.
Then `CCOC(=O)N1CCOC[C@@H]1CNc1nc(-c2cc(OC[C@H](O)CNC)ccc2F)nc(-c2c(C)noc2C)c1C` [Example 62-3], with below 100 nM.
Turning to `CNC[C@H](O)COc1ccc(F)c(-c2nc(N[C@H]3CCN(C(=O)OC)C[C@H]3F)c(C)c(-c3c(C)noc3C)n2)c1` [Example 63-3], the IC50 was below 100 nM.
Regarding `CNCC(O)COc1cccc(-c2nc(-c3ccc(OC)c(OC)c3)cc(N(CCOC)CCOC)n2)c1` (stereo not shown) [Example 64-1], the IC50 is below 100 nM.
The result for `CNC[C@@H](O)COc1ccc(F)c(-c2nc(N[C@H]3CCN(C(=O)OC)C[C@H]3F)c(C)c(-c3c(C)noc3C)n2)c1` [Example 64-3] reads below 100 nM; that for `CNC[C@H](O)COc1ccc(Cl)c(-c2nc(N[C@H]3CCN(C(=O)OC)C[C@H]3F)c(C)c(-c3c(C)noc3C)n2)c1` [Example 65-3], below 100 nM; that for `CNCC(O)COc1cccc(-c2nc(N[C@@H]3CCOC3)c(C)c(-c3c(C)noc3C)n2)c1` (stereo partly shown) [Example 66-1a], below 100 nM.
The result for `CNC[C@H](O)COc1ccc(Cl)c(-c2nc(N[C@@H]3CCN(C(=O)OC)[C@@H](C)C3)c(C)c(-c3c(C)noc3C)n2)c1` [Example 66-3] reads below 100 nM; that for `CNCC(O)COc1cccc(-c2nc(N[C@H]3C[C@@](C)(O)C3)cc(-c3c(C)noc3C)n2)c1` (stereo partly shown) [Example 67-1a], below 100 nM.
The result for `CCS(=O)(=O)N1CCC(Nc2nc(-c3cc(OC[C@@H](O)CNC)ccc3Cl)nc(-c3c(C)noc3C)c2C)CC1` [Example 67-3] reads below 100 nM; that for `CNCC(O)COc1cccc(-c2nc(-c3c(C)noc3C)cc(N3CCN(CCF)CC3)n2)c1` (stereo not shown) [Example 68-1a], below 100 nM; that for `CNC[C@@H](O)COc1cccc(-c2nc(N[C@@H]3CCN(C4CC4)C[C@@H]3F)c(Cl)c(-c3c(C)noc3C)n2)c1` [Example 68-3], below 100 nM.
On to `CNCC(O)COc1cccc(-c2nc(-c3c(C)noc3C)cc(N3CC[C@H](S(C)(=O)=O)C3)n2)c1` (stereo partly shown) [Example 69-1a], for which the IC50 is below 100 nM.
Regarding `CNC[C@H](O)COc1ccc(Cl)c(-c2nc(-c3c(C)noc3C)cc(N3CC4(CCN(C5CC5)CC4)C3)n2)c1` [Example 69-3], the IC50 was below 100 nM.
The result for `CNCC(O)COc1cc(Cl)cc(-c2nc(-c3ccn4cnnc4c3)c(C)c(N(C)C3CCOCC3)n2)c1` (stereo not shown) [Example 70-1] reads below 100 nM; that for `CNCC(O)COc1cccc(-c2nc(-c3c(C)noc3C)cc(N3CCN(C(C)=O)C4(CC4)C3)n2)c1` (stereo not shown) [Example 70-1a], below 100 nM.
With `CCS(=O)(=O)N1CCC(Nc2nc(-c3cccc(OCC(O)CNC)c3)nc(-c3c(C)nsc3C)c2C)CC1` (stereo not shown) [Example 70-3], the IC50 was below 100 nM.
The result for `CNCC(O)COc1cccc(-c2nc(NCCCN3CCCC3=O)cc(-c3ccc(C(F)(F)F)nc3)n2)c1` (stereo not shown) [Example 71-1] reads below 100 nM.

Source of the values: patent US20230279020A9, “CARM1 INHIBITORS AND USES THEREOF” (Epizyme, Inc., priority 2013, published 2023).
